Data on 3 compounds can be found in patent US20200390755A1, “COMPOUND FOR TREATING NERVOUS SYSTEM DISEASES AND USE THEREOF” (SHAANXI MICOT TECHNOLOGY CO., LTD., priority 2018, published 2020).

Marks after values point to notes of the source that are not given here.

For one test, the system named is rats with permanent cerebral ischemia. In words: Neurobehavioral scoring in rats with permanent cerebral ischemia (MCAO thread plug). It counts as in vivo, SD rats. The note with it: 20 mg/kg by gavage, 6 h after ischemia. The procedure: SD rats, male, about 220-250 g, were provided by the Experimental Animal Center of Medical College of Xi'an Jiaotong University. Rats were randomly divided into groups of 14 animals/group. The experiment included a sham group, a model group, a positive control Edaravone group and test compound groups 1-5.12 hours before the operation, the rats were fasted and were free to drink water, and then used for the modeling method of middle cerebral artery occlusion with thread plug. The rats were fixed on a wooden board after anesthesia, the common carotid artery was ligated proximally, the external carotid artery was ligated distally, and the main internal carotid artery into skull was retained. A ligature line was reserved at the bifurcation of the internal carotid artery for temporarily clamping the distal end of the internal carotid artery using an arterial clip. A 3-0 nylon thread with a length of 5 cm and a spherical shape with a diameter of 0.3 mm at the tip was inserted into the common carotid artery through a small incision at the bifurcation. The arterial clamp was loosened, and the thread plug was slowly advanced to 18˜20 mm. When there was resistance, the progress of the thread was stopped. At this time, the nylon thread plug entered the middle artery and blocked the blood flow, and then the ischemic phase began. The skin was sutured. In the sham operation group, the same procedure was executed, except that no thread plug was inserted.
Administering was performed at 0 h, 3 h, 6 h and 12 h after ischemia, and then administering was performed once a day for 7 consecutive days. The test compound was prepared into a 4 mg/mL solution with 1% CMC-Na solution and administered by gavage. The edaravone group received an intravenous dose of 0.078 mg/kg.
2) The rats were lifted at its tail about 1 foot off the ground to observe the condition of both forelimbs. The rats were placed on a level ground and pushed on both shoulders to observe the difference in resistance on both sides. The rats were placed on the ground to observe the walking. The assessment was conducted using a five-grade four-point scoring method (0 to 4 points). The higher the score, the more severe the neurobehavioral damage.
0 point: the behavior is completely normal;
1 point: when the rat is lifted at its tail off the ground, the forelimb on the opposite side of the operation rotates and folds inwardly.
2 points: when the rat is placed on a level ground and pushed on both shoulders to observe the difference in resistance on both sides, the resistance on the opposite side of the operation reduces;
3 points: when the rat is placed on the ground to the walking, it circles around the opposite side of the operation;
4 points: The injury is so severe that the rat is unable to move independently.
(2) Statistical analysis of data: SPSS18.0 statistical software was used for statistical analysis and the data of each group was expressed as the mean standard error (x±SEM). One-way ANOVA and multiple comparisons between groups were used to compare the averages of measurement data among multiple groups. Rank score test was used for behavioral grading data, and Kaplan-Meier method was used for mortality. P<0.05 was considered statistically significant.
As to `CN(C)C1CCN(c2ccc(-c3cc(=O)c4ccc(O)c(O)c4o3)cc2)CC1` [Example 3, 2-(4-(4-(dimethylamino)piperidin-1-yl)phenyl)-7,8-dihydroxy-4H-chromen-4-one], the “Neurobehavioral score (0 to 4 points)” value stood at 1.98 ± 0.25.
The same measure, in the same setting: then `CC1(C)CCN(c2ccc(-c3cc(=O)c4ccc(O)c(O)c4o3)cc2)CC1` [Example 4, 2-(4-(4,4-dimethylpiperidin-1-yl)phenyl)-7,8-dihydroxy-4H-chromen-4-one], with 2.23 ± 0.36.
Same read-out and setting: under `CC1CC(C)CN(c2ccc(-c3cc(=O)c4ccc(O)c(O)c4o3)cc2)C1` (stereo not drawn) [Example 5, 2-(4-(3,5-dimethylpiperidin-1-yl)phenyl)-7,8-dihydroxy-4H-chromen-4-one] stands 2.03 ± 0.29.

Still in this test, the particulars now being: 20 mg/kg by gavage, 1 d after ischemia.
Turning to `CN(C)C1CCN(c2ccc(-c3cc(=O)c4ccc(O)c(O)c4o3)cc2)CC1` [Example 3, 2-(4-(4-(dimethylamino)piperidin-1-yl)phenyl)-7,8-dihydroxy-4H-chromen-4-one], the “Neurobehavioral score (0 to 4 points)” value came to 2.23 ± 0.34.
Same read-out and setting: under `CC1(C)CCN(c2ccc(-c3cc(=O)c4ccc(O)c(O)c4o3)cc2)CC1` [Example 4, 2-(4-(4,4-dimethylpiperidin-1-yl)phenyl)-7,8-dihydroxy-4H-chromen-4-one] stands 1.99 ± 0.36; under `CC1CC(C)CN(c2ccc(-c3cc(=O)c4ccc(O)c(O)c4o3)cc2)C1` (stereo not drawn) [Example 5, 2-(4-(3,5-dimethylpiperidin-1-yl)phenyl)-7,8-dihydroxy-4H-chromen-4-one], 1.86 ± 0.44.

Still in this test, the particulars now being: 20 mg/kg by gavage, 2 d after ischemia.
`CN(C)C1CCN(c2ccc(-c3cc(=O)c4ccc(O)c(O)c4o3)cc2)CC1` [Example 3, 2-(4-(4-(dimethylamino)piperidin-1-yl)phenyl)-7,8-dihydroxy-4H-chromen-4-one]: the “Neurobehavioral score (0 to 4 points)” value was found to be 1.91 ± 0.26.
Turning to `CC1(C)CCN(c2ccc(-c3cc(=O)c4ccc(O)c(O)c4o3)cc2)CC1` [Example 4, 2-(4-(4,4-dimethylpiperidin-1-yl)phenyl)-7,8-dihydroxy-4H-chromen-4-one], the “Neurobehavioral score (0 to 4 points)” value is on record as 1.85 ± 0.45.
The same measure, in the same setting: under `CC1CC(C)CN(c2ccc(-c3cc(=O)c4ccc(O)c(O)c4o3)cc2)C1` (stereo not drawn) [Example 5, 2-(4-(3,5-dimethylpiperidin-1-yl)phenyl)-7,8-dihydroxy-4H-chromen-4-one] stands 1.75 ± 0.25.

Staying with this test, now noted: 20 mg/kg by gavage, 3 d after ischemia.
Turning to `CN(C)C1CCN(c2ccc(-c3cc(=O)c4ccc(O)c(O)c4o3)cc2)CC1` [Example 3, 2-(4-(4-(dimethylamino)piperidin-1-yl)phenyl)-7,8-dihydroxy-4H-chromen-4-one], the “Neurobehavioral score (0 to 4 points)” value came out at 1.87 ± 0.33.
Consider `CC1(C)CCN(c2ccc(-c3cc(=O)c4ccc(O)c(O)c4o3)cc2)CC1` [Example 4, 2-(4-(4,4-dimethylpiperidin-1-yl)phenyl)-7,8-dihydroxy-4H-chromen-4-one], for which the “Neurobehavioral score (0 to 4 points)” value was determined as 2.23 ± 0.36.
Turning to `CC1CC(C)CN(c2ccc(-c3cc(=O)c4ccc(O)c(O)c4o3)cc2)C1` (stereo not drawn) [Example 5, 2-(4-(3,5-dimethylpiperidin-1-yl)phenyl)-7,8-dihydroxy-4H-chromen-4-one], the “Neurobehavioral score (0 to 4 points)” value is reported as 1.94 ± 0.23.

Still in this test, the particulars now being: 20 mg/kg by gavage, 4 d after ischemia.
In the case of `CN(C)C1CCN(c2ccc(-c3cc(=O)c4ccc(O)c(O)c4o3)cc2)CC1` [Example 3, 2-(4-(4-(dimethylamino)piperidin-1-yl)phenyl)-7,8-dihydroxy-4H-chromen-4-one], the “Neurobehavioral score (0 to 4 points)” value is recorded as 1.74 ± 0.26.
Same read-out and setting: under `CC1(C)CCN(c2ccc(-c3cc(=O)c4ccc(O)c(O)c4o3)cc2)CC1` [Example 4, 2-(4-(4,4-dimethylpiperidin-1-yl)phenyl)-7,8-dihydroxy-4H-chromen-4-one] stands 1.54 ± 0.27.
Same read-out and setting: then `CC1CC(C)CN(c2ccc(-c3cc(=O)c4ccc(O)c(O)c4o3)cc2)C1` (stereo not drawn) [Example 5, 2-(4-(3,5-dimethylpiperidin-1-yl)phenyl)-7,8-dihydroxy-4H-chromen-4-one], with 1.85 ± 0.34.

Staying with this test, now noted: 20 mg/kg by gavage, 5 d after ischemia.
Take `CN(C)C1CCN(c2ccc(-c3cc(=O)c4ccc(O)c(O)c4o3)cc2)CC1` [Example 3, 2-(4-(4-(dimethylamino)piperidin-1-yl)phenyl)-7,8-dihydroxy-4H-chromen-4-one]: the “Neurobehavioral score (0 to 4 points)” value was 1.63 ± 0.20.
The same measure, in the same setting: then `CC1(C)CCN(c2ccc(-c3cc(=O)c4ccc(O)c(O)c4o3)cc2)CC1` [Example 4, 2-(4-(4,4-dimethylpiperidin-1-yl)phenyl)-7,8-dihydroxy-4H-chromen-4-one], with 1.78 ± 0.11.
Consider `CC1CC(C)CN(c2ccc(-c3cc(=O)c4ccc(O)c(O)c4o3)cc2)C1` (stereo not drawn) [Example 5, 2-(4-(3,5-dimethylpiperidin-1-yl)phenyl)-7,8-dihydroxy-4H-chromen-4-one], for which the “Neurobehavioral score (0 to 4 points)” value is 1.93 ± 0.20.

The test is the same for the next values; noted with them: 20 mg/kg by gavage, 6 d after ischemia.
As for `CN(C)C1CCN(c2ccc(-c3cc(=O)c4ccc(O)c(O)c4o3)cc2)CC1` [Example 3, 2-(4-(4-(dimethylamino)piperidin-1-yl)phenyl)-7,8-dihydroxy-4H-chromen-4-one], the “Neurobehavioral score (0 to 4 points)” value is 1.78 ± 0.34.
Turning to `CC1(C)CCN(c2ccc(-c3cc(=O)c4ccc(O)c(O)c4o3)cc2)CC1` [Example 4, 2-(4-(4,4-dimethylpiperidin-1-yl)phenyl)-7,8-dihydroxy-4H-chromen-4-one], the “Neurobehavioral score (0 to 4 points)” value was determined as 1.68 ± 0.27.
`CC1CC(C)CN(c2ccc(-c3cc(=O)c4ccc(O)c(O)c4o3)cc2)C1` (stereo not drawn) [Example 5, 2-(4-(3,5-dimethylpiperidin-1-yl)phenyl)-7,8-dihydroxy-4H-chromen-4-one]: the “Neurobehavioral score (0 to 4 points)” value was 1.72 ± 0.44.

Still in this test, the particulars now being: 20 mg/kg by gavage, 7 d after ischemia.
Take `CN(C)C1CCN(c2ccc(-c3cc(=O)c4ccc(O)c(O)c4o3)cc2)CC1` [Example 3, 2-(4-(4-(dimethylamino)piperidin-1-yl)phenyl)-7,8-dihydroxy-4H-chromen-4-one]: the “Neurobehavioral score (0 to 4 points)” value is 1.01 ± 0.27.
For `CC1(C)CCN(c2ccc(-c3cc(=O)c4ccc(O)c(O)c4o3)cc2)CC1` [Example 4, 2-(4-(4,4-dimethylpiperidin-1-yl)phenyl)-7,8-dihydroxy-4H-chromen-4-one], the “Neurobehavioral score (0 to 4 points)” value was found to be 1.12 ± 0.23.
As to `CC1CC(C)CN(c2ccc(-c3cc(=O)c4ccc(O)c(O)c4o3)cc2)C1` (stereo not drawn) [Example 5, 2-(4-(3,5-dimethylpiperidin-1-yl)phenyl)-7,8-dihydroxy-4H-chromen-4-one], the “Neurobehavioral score (0 to 4 points)” value stood at 1.19 ± 0.30.

For the next test, the system named is N171-82Q HD mice. Put plainly: In vivo MRI scan and brain volume measurement, HD mice. Set-up: species or system mouse. The note with it: 5 mg/kg/d, administered until 24 weeks, n = 4. On the procedure:
7-week-old N171-82Q HD male mice were paired with female B6C3F1/J hybrid mice to obtain newborn mice. From 21 days of age, male mice were housed in separate cages. 0.5 cm of mouse tail tissue was removed to extract DNA to determine the genotype of the mouse, such that N171-82Q HD mice and WT mice needed for the experiment were obtained. The mice were randomly divided into WT Vehicle group (normal mice), WT test compound group (administration group of normal mice, 5 mg/kg/d, n=10), HD Vehicle group (blank group of HD mice, n=15), HD test compound group (administration groups 1-5 of HD mice, 5 mg/kg/d, n=10). The test compound was suspended in 1% CMC-Na solution and administered by intragastric administration until the end of the study. The weights of the mice were measured every week. Behavioral tests were performed at 12 weeks, 18 weeks, and 24 weeks of age to investigate motor function. At 20 weeks, 3 samples of tissue from each group were used for western blotting and immunohistochemistry. At 24 weeks, MRI scans were performed. At the end of the study, the effect of the test compound on the mortality of mice was evaluated.
The WT Vehicle group, WT test compound group, HD Vehicle group and HD test compound group were administered until 24 weeks, and 4 mice in each group were taken for in vivo MRI scanning and brain volume measurement. A 9.4 T MRI scanner equipped with three-axis gradient and animal imaging probes was used. The mice were anesthetized with 1% isoflurane. The breath of mice was monitored, and constant temperature was maintained throughout the scan. Three-dimensional T2 weighted fast spin echo sequence technology was used to obtain images. The imaging resolution and contrast of this technology were sufficient to automatically describe the volume of the mouse brain and substructures. The parameters were as follows: echo time (TE)/repetition time (TR) ^1/440/700 ms, resolution ^1/40.1×0.1×0.1 mm, echo train length ^1/44, average number ^1/42 and flip angle ^1/4408. The instrument contained a powerful linux cluster that can encode and run large-scale deformation diffusion metric maps (LDDMM) to obtain high-intensity standardized images. These transformations encoded morphological differences between images and analyzed based on deformation morphological measurements (DBM) to detect regional changes in brain volume. The volume of the whole brain (Brain), […] was analyzed.
The MRI scanning technology was used to analyze the morphological differences between the experimental object and the template image, and the LDDMM method was used to calculate and analyze the brain tissue structure of the mouse. The statistical results of the brain volume, striatum volume, and neurocortex volume of the test compound Example 1 are shown in FIG. 3, in which FIG. 3A is the statistical results of the whole brain volume, and FIG. 3B is the statistical results of striatum volume, and FIG. 3C is the statistical results of neurocortex volume.
Turning to `CN(C)C1CCN(c2ccc(-c3cc(=O)c4ccc(O)c(O)c4o3)cc2)CC1` [Example 3, 2-(4-(4-(dimethylamino)piperidin-1-yl)phenyl)-7,8-dihydroxy-4H-chromen-4-one], the “MRI volume, Neurocortex” value is 19.05 ± 0.997** mm^3; the “MRI volume, Striatum” value is 80.34 ± 1.238** mm^3; the “MRI volume, Whole brain” value was 465.33 ± 9.218** mm^3.
The matching figures for `CC1(C)CCN(c2ccc(-c3cc(=O)c4ccc(O)c(O)c4o3)cc2)CC1` [Example 4, 2-(4-(4,4-dimethylpiperidin-1-yl)phenyl)-7,8-dihydroxy-4H-chromen-4-one]: 18.59 ± 0.899** mm^3, 79.03 ± 1.834** mm^3 and 461.31 ± 3.451** mm^3.
As for `CC1CC(C)CN(c2ccc(-c3cc(=O)c4ccc(O)c(O)c4o3)cc2)C1` (stereo not drawn) [Example 5, 2-(4-(3,5-dimethylpiperidin-1-yl)phenyl)-7,8-dihydroxy-4H-chromen-4-one], the “MRI volume, Neurocortex” value was 19.01 ± 0.557** mm^3; the “MRI volume, Striatum” value is 79.43 ± 0.898** mm^3; the “MRI volume, Whole brain” value is 462.19 ± 2.178** mm^3.
